Positions of bridges follow the written chain, without caps; N, C: chain ends. Non-standard residues stand in square brackets, D forms with d. Residues, ends and D or L forms follow the SMILES beside them. Pen = CC(C)(S)[C@H](N)C(=O)O; Mpa = O=C(O)CCS
Assays:
[1] = target: T1, vasopressin receptor sites (Sus scrofa, UniProt P32307); assay: Binding activity in hog tissue (KB), protocol of Stassen et al.
T1 construct: from tissue; renal medulla by own knowledge of the cited protocol
Text: (§1) The binding activity in hog and rat liver tissue, as well as the antagonistic activity in the hydropenic rat, of the compounds according to this invention is illustrated by the following results which were obtained using testing protocols which are described in the literature [F. Stassen, J. Pharmacology and Experimental Therapeutics, 223 50 (1982)]: […]

[2] = target: T2, vasopressin receptor sites (Rattus norvegicus, UniProt P30560); assay: Binding activity in rat liver tissue (KB), protocol of Stassen et al.
T2 construct: from tissue; host or cells: rat liver tissue
Text: as §1

T1 sequence (P32307 whole entry): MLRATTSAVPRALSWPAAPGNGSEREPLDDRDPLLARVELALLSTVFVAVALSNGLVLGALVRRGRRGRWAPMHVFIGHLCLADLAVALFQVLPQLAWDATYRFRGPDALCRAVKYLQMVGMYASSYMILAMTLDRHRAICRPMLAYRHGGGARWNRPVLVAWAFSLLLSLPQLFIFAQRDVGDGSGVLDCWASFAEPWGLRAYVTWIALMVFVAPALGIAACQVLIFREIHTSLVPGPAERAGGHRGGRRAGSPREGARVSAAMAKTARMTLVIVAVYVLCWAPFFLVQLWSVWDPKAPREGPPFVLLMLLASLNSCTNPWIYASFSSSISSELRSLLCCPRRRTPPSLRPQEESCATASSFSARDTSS
T2 sequence (P30560 whole entry): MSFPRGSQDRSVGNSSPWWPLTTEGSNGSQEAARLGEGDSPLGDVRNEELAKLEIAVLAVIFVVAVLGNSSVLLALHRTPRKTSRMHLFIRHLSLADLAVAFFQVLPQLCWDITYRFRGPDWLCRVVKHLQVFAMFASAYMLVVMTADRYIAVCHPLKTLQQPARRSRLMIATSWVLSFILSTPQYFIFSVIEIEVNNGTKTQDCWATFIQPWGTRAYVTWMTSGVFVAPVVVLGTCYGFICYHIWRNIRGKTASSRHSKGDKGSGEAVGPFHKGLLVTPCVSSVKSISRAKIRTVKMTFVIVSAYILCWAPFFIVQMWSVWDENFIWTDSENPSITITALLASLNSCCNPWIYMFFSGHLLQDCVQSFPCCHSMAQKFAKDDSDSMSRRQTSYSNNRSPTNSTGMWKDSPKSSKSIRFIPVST

Kb [1] [nM]	Kb [2] [nM]	Compound
9900	–	CCOc1ccc(C[C@H]2NC(=O)CCSSC[C@@H](C(=O)N3CCC[C@H]3C(=O)N[C@@H](CCCNC(=N)N)C(=O)NCC(N)=O)NC(=O)[C@H](CC(N)=O)NC(=O)[C@H](C(C)C)NC(=O)[C@H](Cc3ccccc3)NC2=O)cc1 [Compound B, Mpr--D-Tyr(Et)--Phe--Val--Asn--Cys--Pro--Arg--Gly(NH2), reference compound] ([Mpa][dY](Et)FVNCPRG-NH2; disulfide 1-6)
190	110	CCOc1ccc(C[C@H]2NC(=O)CCSSC(C)(C)[C@@H](C(=O)N3CCC[C@H]3C(=O)N[C@@H](CCCNC(=N)N)C(=O)NCC(N)=O)NC(=O)[C@H](CC(N)=O)NC(=O)[C@H](C(C)C)NC(=O)[C@H](Cc3ccccc3)NC2=O)cc1 [Compound A, Mpr--D-Tyr(Et)--Phe--Val--Asn--Pen--Pro--Arg--Gly(NH2)] ([Mpa][dY](Et)FVN[Pen]PRG-NH2; disulfide 1-6)
